For experiment [1], the target named is T1, human A2b adenosine receptor (Homo sapiens, UniProt P29275).
T1 construct: purchased Perkin Elmer ES-013-C; host or cells: HEK293 cells recombinantly expressing the receptor; membranes made from them
T1 sequence (P29275 1-332): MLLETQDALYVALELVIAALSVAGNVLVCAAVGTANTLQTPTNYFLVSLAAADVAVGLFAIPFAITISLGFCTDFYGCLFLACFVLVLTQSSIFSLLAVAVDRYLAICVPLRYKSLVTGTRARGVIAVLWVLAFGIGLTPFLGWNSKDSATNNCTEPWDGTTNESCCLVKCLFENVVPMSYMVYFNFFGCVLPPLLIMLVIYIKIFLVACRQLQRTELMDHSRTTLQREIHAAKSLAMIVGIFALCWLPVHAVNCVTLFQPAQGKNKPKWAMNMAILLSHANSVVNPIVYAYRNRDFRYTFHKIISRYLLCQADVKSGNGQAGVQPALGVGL
The experiment can be described thus: A2b binding affinity, radioligand filtration binding assay. The settings on record: tritiated proprietary A2b antagonist, HEK293 membranes expressing human A2b. The text has this: (§1) Method (A) describes the procedure used to measure A2a binding affinity using radioligand binding. Method (B) describes the procedure used to measure A2a binding affinity using SPA technology. The method used to measure A2b binding affinity is also described below. The method used to determine the A2a IC50 value reported for each compound in the table is indicated next to the reported value. The A2b IC50 value measured using the A2b binding affinity assay is shown in the table next to the compound under the corresponding A2a value.
Measurement of A2b Binding Affinity
The reported affinity of the compounds of the invention for the human A2b adenosine receptor was determined experimentally using a radioligand filtration binding assay. This assay measures the amount of binding of a tritiated proprietary A2b receptor antagonist, in the presence and absence of a compound of the invention, to membranes made from HEK293 cells recombinantly expressing the human A2b adenosine receptor (Perkin Elmer, Cat. No. ES-013-C).
148 μL (135 μg/mL) membranes and 2 μL test compounds were transferred to individual wells of a 96-well polypropylene assay plate and incubated for 15 to 30 minutes at room temperature with agitation. Tritiated radioligand was diluted to a concentration of 14 nM in assay buffer (phosphate buffered saline without Magnesium and Calcium, pH 7.4; GE Healthcare Life Sciences, Cat. No. SH30256.01) and then 50 μL of the solution were transferred to each well of the assay plate. To define total and non-specific binding, wells containing 1% DMSO and 20 μM N-ethylcarboxamidoadenosine (Tocris Bioscience, Cat. No. 1691) respectively, were also included. The wells of the assay plate were incubated at room temperature for 60 minutes with agitation, then filtered using a FilterMate Harvester® (Perkin Elmer) or similar equipment through a UniFilter-96® PEI coated plate (Perkin Elmer Cat. No. 6005274 or 6005277). Filtering was achieved by aspirating the contents of the assay plate for 5 seconds, then washing and aspirating the contents three times with ice-cooled wash buffer (assay buffer supplemented with 0.0025% Brij58) and allowing the vacuum manifold to dry the plate for 30 seconds. The filter plate was incubated for at least 1 hour at 55° C. and allowed to dry. The bottom of the filter plate was then sealed with backing tape. 40 μL Ultima Gold™ (Perkin Elmer, Cat. No. 6013329) was added to each well of the filter plate and the top of the plate was sealed with TopSeal-A PLUS® clear plate seal (Perkin Elmer, Cat. No. 6050185). The plates were then incubated for at least 20 minutes, and then the amount of radioactivity remaining in each well was determined using a TopCount® (Perkin Elmer) scintillation counter. After normalization to total and non-specific binding, the percent effect at each compound concentration was calculated. The plot of percent effect versus the log of compound concentration was analyzed electronically using a 4-parameter logistic fit based on the Levenberg-Marquardt algorithm to generate IC50 values.

The target in experiment [2] is T2, human A2a adenosine receptor (Homo sapiens, UniProt P29274).
T2 construct: purchased Perkin Elmer RBHA2aM400UA; host or cells: HEK293 or CHO cells (recombinant expression)
The experiment can be described thus: A2a binding affinity using radioligand binding, Method (A). The settings on record: Method (A): [3H]SCH58261 filtration binding, membranes expressing human A2a.
From the text: as §1
The A2a receptor affinity binding assay measured the amount of binding of a tritiated ligand with high affinity for the A2a adenosine receptor to membranes made from HEK293 or CHO cells recombinantly expressing the human A2a adenosine receptor, in the presence of varying concentrations of a compound of the invention. The data were generated using either filtration binding or a homogenous scintillation proximity assay (SPA).
Method (A): Measurement of A2a Binding Affinity Using Radioligand Binding
148 μL (5 μg/mL) membranes (Perkin Elmer, Cat. No. RBHA2aM400UA) and 2 μL compounds of the invention to be tested (test compound) were transferred to individual wells of a 96-well polypropylene assay plate and incubated for 15 to 30 minutes at room temperature. [^3H] SCH58261 ((7-(2-phenylethyl)-5-amino-2-(2-furyl)-pyrazolo-[4,3-e]-1,2,4-triazolo[1,5-c]pyrimidine)) was diluted in assay buffer (50 mM Tris pH 7.4, 10 mM MgCl2, 0.005% Tween20) to a concentration of 4 nM and 50 μL transferred to each well of the assay plate. To define total and non-specific binding, wells containing 1% DMSO and 1 μM ZM241385 (Tocris Bioscience, Cat. No. 1036) respectively, were also included. The assay plate was incubated at room temperature for 60 minutes with agitation. Using a FilterMate Harvester® (Perkin Elmer), the contents of the assay plate were filtered through a UniFilter-96® PEI coated plate (Perkin Elmer Cat. No. 6005274 or 6005277). Filtering was achieved by aspirating the contents of the assay plate for 5 seconds, then washing and aspirating the contents three times with ice-cooled wash buffer (50 mM Tris-HCl pH 7.4, 150 mM NaCl) and allowing the vacuum manifold to dry the plate for 30 seconds. The filter plate was incubated for at least 1 hour at 55° C. and allowed to dry. The bottom of the filter plate was sealed with backing tape. 40 μL Ultima Gold™ (Perkin Elmer, Cat. No. 6013329) was added to each well of the filter plate and the top of the plate was sealed with TopSeal-A PLUS® clear plate seal (Perkin Elmer, Cat. No. 6050185). The plate was incubated for at least 20 minutes, and then the amount of radioactivity remaining in each well was determined using a TopCount® (Perkin Elmer) scintillation counter. After normalization to total and non-specific binding, the percent effect at each compound concentration was calculated. The plot of percent effect versus the log of compound concentration was analyzed electronically using a 4-parameter logistic fit based on the Levenberg-Marquardt algorithm to generate IC50 values.

T2 sequence (P29274 whole entry): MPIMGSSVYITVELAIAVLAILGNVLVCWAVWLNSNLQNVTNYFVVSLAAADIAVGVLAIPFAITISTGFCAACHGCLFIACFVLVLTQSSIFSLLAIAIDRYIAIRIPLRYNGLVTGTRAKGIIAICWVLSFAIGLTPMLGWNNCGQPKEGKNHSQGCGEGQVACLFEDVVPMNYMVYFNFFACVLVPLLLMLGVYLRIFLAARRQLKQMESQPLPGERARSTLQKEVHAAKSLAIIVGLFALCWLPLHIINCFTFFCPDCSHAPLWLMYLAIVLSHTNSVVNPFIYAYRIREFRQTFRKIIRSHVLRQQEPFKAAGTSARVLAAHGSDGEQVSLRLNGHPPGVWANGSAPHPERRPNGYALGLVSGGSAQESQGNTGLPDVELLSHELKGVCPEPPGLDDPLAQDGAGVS

As for `Cc1c(-c2ncco2)nc(N)n2nc([C@H]3CC[C@@H](C)N(c4cnn(CC(C)(C)O)c4)C3)nc12` [Example 2.13, 1-(4-((2R,5S)-5-(5-amino-8-methyl-7-(oxazol-2-yl)-[1,2,4]triazolo[1,5-c]pyrimidin-2-yl)-2-methylpiperidin-1-yl)-1H-pyrazol-1-yl)-2-methylpropan-2-ol], the IC50 in experiment [1] is 1310 nM; in experiment [2], 47.9 nM.

For `Cc1c(-c2ncco2)nc(N)n2nc(C3CCN(CC(F)(F)F)C3)nc12` (racemic) [Example 9.1, (R and S)-8-methyl-7-(oxazol-2-yl)-2-(1-(2,2,2-trifluoroethyl)pyrrolidin-3-yl)-[1,2,4]triazolo[1,5-c]pyrimidin-5-amine], the IC50 in experiment [1] was determined as 618 nM; in experiment [2], 32.3 nM.

As for `Cc1c(-c2ncco2)nc(N)c2nc(C3CCC(C)(O)C3)nn12` (single isomer, unassigned) [Example 8.7, (1R,3S and 1S,3R) or (1R,3R and 1S,3S)-3-(8-amino-5-methyl-6-(oxazol-2-yl)-[1,2,4]triazolo[1,5-a]pyrazin-2-yl)-1-methylcyclopentan-1-ol], the IC50 in experiment [1] worked out at 2590 nM; in experiment [2], 143 nM.

Take `Cc1c(-c2cccc(F)c2)nc(N)c2nc(C3CCC(C)(O)C3)nn12` (single isomer, unassigned) [Example 8.8, (1R,3S and 1S,3R) or (1R,3R and 1S,3S)-3-(8-amino-6-(3-fluorophenyl)-5-methyl-[1,2,4]triazolo[1,5-a]pyrazin-2-yl)-1-methylcyclopentan-1-ol]: the IC50 in experiment [1] amounted to 350 nM; in experiment [2], 70.5 nM.

As to `Cc1c(-c2ncco2)nc(N)n2nc([C@@H]3CCCN(c4cnn(CC(C)(C)O)c4C)C3)nc12` [Example 3.10, (R)-1-(4-(3-(5-amino-8-methyl-7-(oxazol-2-yl)-[1,2,4]triazolo[1,5-c]pyrimidin-2-yl)piperidin-1-yl)-5-methyl-1H-pyrazol-1-yl)-2-methylpropan-2-ol], the half-maximal inhibitory concentration (IC50) in experiment [1] was 535 nM; in experiment [2], 2.1 nM.

Turning to `Cc1c(-c2ncco2)nc(N)n2nc(C3CCCC(C)(O)C3)nc12` (single isomer, unassigned) [Example 8.2-1, (1-R or S,3-R or S)-3-(5-amino-8-methyl-7-(oxazol-2-yl)-[1,2,4]triazolo[1,5-c]pyrimidin-2-yl)-1-methylcyclohexan-1-ol], the half-maximal inhibitory concentration (IC50) was determined as 5550 nM in experiment [1] and 30.6 nM in experiment [2].

For the compound `Cc1cc(N2CCC[C@@H](c3nc4c(C)c(-c5ncco5)nc(N)n4n3)C2)cn(C(F)F)c1=O` [Example 3.14, (R)-5-(3-(5-amino-8-methyl-7-(oxazol-2-yl)-[1,2,4]triazolo[1,5-c]pyrimidin-2-yl)piperidin-1-yl)-1-(difluoromethyl)-3-methylpyridin-2(1H)-one], the half-maximal inhibitory concentration (IC50) in experiment [1] was found to be 116 nM; in experiment [2], 0.2 nM.

Take `Cc1c(-c2ncco2)nc(N)n2nc(C3CCN(c4cnn(CC(C)(C)O)c4)C3)nc12` (single isomer, unassigned) [Example 3.15-1, (R or S)-1-(4-(3-(5-amino-8-methyl-7-(oxazol-2-yl)-[1,2,4]triazolo[1,5-c]pyrimidin-2-yl)pyrrolidin-1-yl)-1H-pyrazol-1-yl)-2-methylpropan-2-ol]: the figures for the 50% inhibitory concentration (IC50) in experiment [1] and in experiment [2] were 386 nM and 42.6 nM, respectively.

As to `Cc1c(-c2ncco2)nc(N)n2nc([C@@H]3CCCN(c4cnn(C5CCOCC5)c4)C3)nc12` [Example 3.6, (R)-8-methyl-7-(oxazol-2-yl)-2-(1-(1-(tetrahydro-2H-pyran-4-yl)-1H-pyrazol-4-yl)piperidin-3-yl)-[1,2,4]triazolo[1,5-c]pyrimidin-5-amine], the values for the IC50 in experiment [1] and in experiment [2] were 389 nM and 0.9 nM, respectively.

In the case of `CCn1cc(N2C[C@H](c3nc4c(C)c(-c5cccc(F)c5)nc(N)n4n3)CC[C@@H]2C)cn1` [Example 2.16, 2-((3R,6S)-1-(1-ethyl-1H-pyrazol-4-yl)-6-methylpiperidin-3-yl)-7-(3-fluorophenyl)-8-methyl-[1,2,4]triazolo[1,5-c]pyrimidin-5-amine], the IC50 was found to be 82.6 nM in experiment [1] and 8.8 nM in experiment [2].

Take `Cc1c(-c2cccc(F)c2)nc(N)c2nc(C3CCCC(C)(O)C3)nn12` (single isomer, unassigned) [Example 8.10-1, (1R,3S or 1S,3R or 1R,3R or 1S,3S)-1-3-(8-amino-6-(3-fluorophenyl)-5-methyl-[1,2,4]triazolo[1,5-a]pyrazin-2-yl)-1-methylcyclohexan-1-ol]: the IC50 in experiment [1] worked out at 2640 nM; in experiment [2], 175 nM.

Regarding `Cc1c(-c2ncco2)nc(N)c2nc(C3CCC(C)(O)C3)nn12` (single isomer, unassigned) [Example 8.6, (1R,3S and 1S,3R) or (1R,3R and 1S,3S)-(8-amino-5-methyl-6-(oxazol-2-yl)-[1,2,4]triazolo[1,5-a]pyrazin-2-yl)-1-methylcyclopentan-1-ol], the IC50 in experiment [1] was 142 nM; in experiment [2] it was 6.5 nM.

With `Cc1c(-c2ncco2)nc(N)c2nc(C3CCCC(C)(O)C3)nn12` (single isomer, unassigned) [Example 8.4, (1R,3S and 1S,3R) or (1R,3R and 1S,3S)-3-(8-amino-5-methyl-6-(oxazol-2-yl)-[1,2,4]triazolo[1,5-a]pyrazin-2-yl)-1-methylcyclohexan-1-ol], the half-maximal inhibitory concentration (IC50) came out at 411 nM in experiment [1] and 6.7 nM in experiment [2].

As for `CCn1cc(N2C[C@@H](c3nc4c(C)c(-c5ncco5)nc(N)n4n3)CC[C@H]2C)cn1` [Example 2.15, 2-((3S,6R)-1-(1-ethyl-1H-pyrazol-4-yl)-6-methylpiperidin-3-yl)-8-methyl-7-(oxazol-2-yl)-[1,2,4]triazolo[1,5-c]pyrimidin-5-amine], the concentration for half-maximal inhibition (IC50) is 2400 nM in experiment [1] and 20 nM in experiment [2].

Broadly, the IC50 is the midpoint of a concentration-inhibition curve. A lower IC50 goes with greater potency.

Source of the values: patent US12466831B2, “Substituted amino triazolopyrimidine and amino triazolopyrazine adenosine receptor antagonists, pharmaceutical compositions and their use” (Merck Sharp & Dohme LLC, priority 2018, dated 2025).
